Measurements taken from patent US20100063065A1 (Inpharmatica Limited, priority 2005, published 2010).

What follows are compounds tested against T1, PPARδ (Homo sapiens, UniProt Q03181) (assay: Transactivation assay (PPARδ GAL4 assay) in transiently transfected HEK293 cells). Conditions: luciferase reporter, Table 1.
T1 construct: fused to amino acids 147-441 of PPARδ downstream of CMV promoter; expressed in transfected cells; host or cells: HEK293 cells, transiently transfected with pFACMV-PPARδ using Fugene
T1 sequence (Q03181 147-441): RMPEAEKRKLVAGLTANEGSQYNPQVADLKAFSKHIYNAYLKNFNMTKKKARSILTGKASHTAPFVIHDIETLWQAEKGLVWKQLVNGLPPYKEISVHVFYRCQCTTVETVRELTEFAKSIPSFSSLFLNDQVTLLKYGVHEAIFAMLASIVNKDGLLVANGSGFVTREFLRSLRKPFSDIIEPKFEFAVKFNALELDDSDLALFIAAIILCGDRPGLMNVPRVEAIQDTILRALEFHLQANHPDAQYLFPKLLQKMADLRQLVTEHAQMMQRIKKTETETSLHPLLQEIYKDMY
Format: cell-based
Description: Compounds were screened for their functional potency in transiently transfected HEK293 cells for their ability to activate PPAR subtypes. Cells were cultured in DMEM (Invitrogen) supplemented with 10% foetal calf serum, glutamine, penicillin and streptomycin and plated at 10 000 cells/well of a 96-well solid white plate and incubated at 37° C./5% CO2 for 24 hours. Media was removed and the cells washed with PBS. Cells were then transiently transfected using Fugene (Roche) with 50 ng pFACMV-PPARδ (plasmid encoding amino acids 1-147 of the GAL4 DNA binding domain, fused to amino acids 147-441 of PPARδ downstream of CMV promoter) and 250 ng pFR-Luc (reporter plasmid containing 5×GAL4 response elements upstream of a luciferase gene), using a ratio of 3:1 Fugene:DNA. 100 μl of this transfection mixture in DMEM (without foetal calf serum) was added to each well, and the incubation continued for a further 24 hours. The cells are then again washed with PBS prior to the addition of 100 μl reduced serum medium (OptiMEM; Invitrogen). Compounds were added (10 μl in 2% DMSO in OptiMEM) to achieve final concentrations between 0-30 μM. The cells were then returned to the incubator for a further 24 hours. 100 μl of luciferase reagent (Bright Glo, Promega) was added directly to each well, and the luminescence determined using a suitable luminometer.
To measure the selectivity of compounds, their ability to transactivate GAL4 fusions of PPARα LBD and PPARγ LBD was determined. The activity of compounds was expressed as a percentage relative to control compounds: PPARγ rosiglitazone (BRL 49653), PPARδ GW501516 (11) or PPARα KCL1999000269 (12). EC50 values were calculated by fitting of the data to a sigmoidal dose response curve.
With `CCc1cc(C(=O)c2ccc(Cl)c(Cl)c2)c(NC(=O)CSC(C)(C)C(=O)O)s1` [Example 29, 2-{[3-(3,4-Dichloro-benzoyl)-5-ethyl-thiophen-2-ylcarbamoyl]-methylsulfanyl}-2-methyl-propionic acid] the EC50 was < 0.1 µM. Compound `CCc1cc(C(=O)c2ccc(Cl)c(Cl)c2)c(NC(=O)CC(C)(C)CC(=O)O)s1` [Example 30, 4-[3-(3,4-Dichloro-benzoyl)-5-ethyl-thiophen-2-ylcarbamoyl]-3,3-dimethyl-butyric acid] has an EC50 of 1 to 30 µM. `CCc1cc(C(=O)c2ccc(F)c(Cl)c2)c(NC(=O)CSCC(=O)O)s1` [Example 31, {[3-(3-Chloro-4-fluoro-benzoyl)-5-ethyl-thiophen-2-ylcarbamoyl]-methylsulfanyl}-acetic acid] gave an EC50 of 0.1 to 1 µM. For `CCc1cc(C(=O)c2ccc(F)c(Cl)c2)c(NC(=O)CC(C)(C)CC(=O)O)s1` [Example 32, 4-[3-(3-Chloro-4-fluoro-benzoyl)-5-ethyl-thiophen-2-ylcarbamoyl]-3,3-dimethyl-butyric acid], the EC50 was 1 to 30 µM. `CCc1cc(C(=O)c2ccc(OC(C)C)cc2)c(NC(=O)CSCC(=O)O)s1` [Example 33, {[5-Ethyl-3-(4-isopropoxy-benzoyl)-thiophen-2-ylcarbamoyl]-methylsulfanyl}-acetic acid] gave an EC50 of 0.1 to 1 µM. `CCc1cc(C(=O)c2cccc(Br)c2)c(NC(=O)CSCC(=O)O)s1` [Example 34, {[3-(3-Bromo-benzoyl)-5-ethyl-thiophen-2-ylcarbamoyl]-methylsulfanyl}-acetic acid] gave an EC50 of 0.1 to 1 µM. `CCc1cc(C(=O)c2ccc(C#N)cc2)c(NC(=O)CSCC(=O)O)s1` [Example 35, {[3-(4-Cyano-benzoyl)-5-ethyl-thiophen-2-ylcarbamoyl]-methylsulfanyl}-acetic acid] was tested, and the EC50 was 1 to 30 µM. In the case of `CCc1cc(C(=O)c2ccc(-c3ccccc3)cc2)c(NC(=O)CSCC(=O)O)s1` [Example 36, {[3-(Biphenyl-4-carbonyl)-5-ethyl-thiophen-2-ylcarbamoyl]-methylsulfanyl}-acetic acid], the EC50 is reported as < 0.1 µM. `CCc1cc(C(=O)c2ccc(-c3ccccc3)cc2)c(NC(=O)CC(C)(C)CC(=O)O)s1` [Example 37, 4-[3-(Biphenyl-4-carbonyl)-5-ethyl-thiophen-2-ylcarbamoyl]-3,3-dimethyl-butyric acid] gave an EC50 of 0.1 to 1 µM. In the case of `CCc1cc(C(=O)c2ccc(-c3ccc(C(F)(F)F)cc3)cc2)c(NC(=O)CSCC(=O)O)s1` [Example 38, {[5-Ethyl-3-(4′-trifluoromethyl-biphenyl-4-carbonyl)-thiophen-2-ylcarbamoyl]-methylsulfanyl}-acetic acid], the EC50 is reported as < 0.1 µM. In the case of `CCc1cc(C(=O)c2ccc(-c3ccc(OC(F)(F)F)cc3)cc2)c(NC(=O)CSCC(=O)O)s1` [Example 39, {[5-Ethyl-3-(4′-trifluoromethoxy-biphenyl-4-carbonyl)-thiophen-2-ylcarbamoyl]-methylsulfanyl}-acetic acid], the EC50 is reported as < 0.1 µM. In the case of `CCc1cc(C(=O)c2ccc(-c3ccc(F)cc3)cc2)c(NC(=O)CSCC(=O)O)s1` [Example 40, {[5-Ethyl-3-(4′-fluoro-biphenyl-4-carbonyl)-thiophen-2-ylcarbamoyl]-methylsulfanyl}-acetic acid], the EC50 is reported as < 0.1 µM. In the case of `CCc1cc(C(=O)c2ccc(-c3cncnc3)cc2)c(NC(=O)CSCC(=O)O)s1` [Example 41, {[5-Ethyl-3-(4-pyrimidin-5-yl-benzoyl)-thiophen-2-ylcarbamoyl]-methylsulfanyl}-acetic acid], the EC50 is reported as 1 to 30 µM. `CCc1cc(C(=O)c2ccc(-c3cnn(C)c3)cc2)c(NC(=O)CSCC(=O)O)s1` [Example 42, ({5-Ethyl-3-[4-(1-methyl-1H-pyrazol-4-yl)-benzoyl]-thiophen-2-ylcarbamoyl}-methylsulfanyl)-acetic acid] was tested, and the EC50 was 1 to 30 µM. In the case of `CCc1cc(C(=O)c2cccc(-c3ccc(F)cc3)c2)c(NC(=O)CSCC(=O)O)s1` [Example 43], the EC50 is reported as 0.1 to 1 µM. For `CCc1cc(C(=O)c2cccc(-c3ccc(OC(F)(F)F)cc3)c2)c(NC(=O)CSCC(=O)O)s1` [Example 44, {[5-Ethyl-3-(4′-trifluoromethoxy-biphenyl-3-carbonyl)-thiophen-2-ylcarbamoyl]-methylsulfanyl}-acetic acid], the EC50 was 0.1 to 1 µM. In the case of `CCc1cc(C(=O)c2ccc(C(F)(F)F)cc2)c(NC(=O)CSCC(=O)O)s1` [Example 45, {[5-Ethyl-3-(4-trifluoromethylbenzoyl)-thiophen-2-ylcarbamoyl]-methylsulfanyl}-acetic acid], the EC50 is reported as < 0.1 µM. For `CCc1cc(C(=O)c2cccc3ccccc23)c(NC(=O)CSCC(=O)O)s1` [Example 46, {[5-Ethyl-3-(naphthalene-1-carbonyl)-thiophen-2-ylcarbamoyl]-methylsulfanyl}-acetic acid], the EC50 was 1 to 30 µM. `CCc1cc(C(=O)c2ccc3ccccc3c2)c(NC(=O)CSCC(=O)O)s1` [Example 47, {[5-Ethyl-3-(naphthalene-2-carbonyl)-thiophen-2-ylcarbamoyl]-methylsulfanyl}-acetic acid] gave an EC50 of 0.1 to 1 µM. `CCc1cc(C(=O)c2cccc(OC)c2)c(NC(=O)CSCC(=O)O)s1` [Example 48, {[5-Ethyl-3-(3-methoxybenzoyl)-thiophen-2-ylcarbamoyl]-methylsulfanyl}-acetic acid] showed an EC50 of 1 to 30 µM. `CCc1cc(C(=O)c2ccc(OC)c(OC)c2)c(NC(=O)CSCC(=O)O)s1` [Example 49, {[3-(3,4-Dimethoxybenzoyl)-5-ethyl-thiophen-2-ylcarbamoyl]-methylsulfanyl}-acetic acid] was tested, and the EC50 was 1 to 30 µM. With `CCc1cc(C(=O)c2ccc(C(C)(C)C)cc2)c(NC(=O)CSCC(=O)O)s1` [Example 50, {[3-(4-tert-Butyl-benzoyl)-5-ethyl-thiophen-2-ylcarbamoyl]-methylsulfanyl}-acetic acid] the EC50 was 1 to 30 µM. `CCc1cc(C(=O)c2ccc(C)c(C)c2)c(NC(=O)CSCC(=O)O)s1` [Example 51, {[3-(3,4-Dimethyl-benzoyl)-5-ethyl-thiophen-2-ylcarbamoyl]-methylsulfanyl}-acetic acid] gave an EC50 of 1 to 30 µM. `CCc1cc(C(=O)c2ccc(C)c(C)c2)c(NC(=O)CC(C)(C)CC(=O)O)s1` [Example 52, 4-[3-(3,4-Dimethyl-benzoyl)-5-ethyl-thiophen-2-ylcarbamoyl]-3,3-dimethyl-butyric acid] showed an EC50 of 1 to 30 µM. Work on `CCc1cc(C(=O)c2ccc(C)c(C)c2)c(NC(=O)CC2(CC(=O)O)CCCC2)s1` [Example 53, (1-{[3-(3,4-Dimethyl-benzoyl)-5-ethyl-thiophen-2-ylcarbamoyl]-methyl}-cyclopentyl)-acetic acid] yielded an EC50 of 1 to 30 µM. In the case of `CCc1cc(C(=O)c2ccc(C)c(C)c2)c(NC(=O)CSC(C)(C)C(=O)O)s1` [Example 54, 2-{[3-(3,4-Dimethyl-benzoyl)-5-ethyl-thiophen-2-ylcarbamoyl]-methylsulfanyl}-2-methyl-propionic acid], the EC50 is reported as 0.1 to 1 µM. For `CCc1cc(C(=O)c2ccc(OC)nc2)c(NC(=O)CSCC(=O)O)s1` [Example 55, {[5-Ethyl-3-(6-methoxy-pyridine-3-carbonyl)-thiophen-2-ylcarbamoyl]-methylsulfanyl}-acetic acid], the EC50 was 1 to 30 µM. `CCc1cc(C(=O)c2ccc(OC)nc2)c(NC(=O)CC2(CC(=O)O)CCCC2)s1` [Example 56, (1-{[5-Ethyl-3-(6-methoxy-pyridine-3-carbonyl)-thiophen-2-ylcarbamoyl]-methyl}-cyclopentyl)-acetic acid] was tested, and the EC50 was 1 to 30 µM. For `CCc1cc(C(=O)c2ccc(C(F)(F)F)nc2)c(NC(=O)CSCC(=O)O)s1` [Example 57, {[5-Ethyl-3-(6-trifluoromethyl-pyridine-3-carbonyl)-thiophen-2-ylcarbamoyl]-methylsulfanyl}-acetic acid], the EC50 was 1 to 30 µM. Work on `CCc1cc(C(=O)c2ccc(OC(C)C)nc2)c(NC(=O)CSCC(=O)O)s1` [Example 58, {[5-Ethyl-3-(6-isopropoxy-pyridine-3-carbonyl)-thiophen-2-ylcarbamoyl]-methylsulfanyl}-acetic acid] yielded an EC50 of 0.1 to 1 µM. For `CCc1cc(C(=O)c2cnc(OC(C)C)c(Cl)c2)c(NC(=O)CSCC(=O)O)s1` [Example 59, {[3-(5-Chloro-6-isopropoxy-pyridine-3-carbonyl)-5-ethyl-thiophen-2-ylcarbamoyl]-methylsulfanyl}-acetic acid], the EC50 was 0.1 to 1 µM. In the case of `CCc1cc(C(=O)c2ccc(Oc3ccccc3)nc2)c(NC(=O)CSCC(=O)O)s1` [Example 60, {[5-Ethyl-3-(6-phenoxy-pyridine-3-carbonyl)-thiophen-2-ylcarbamoyl]-methylsulfanyl}-acetic acid], the EC50 is reported as 1 to 30 µM.
